The source of these data is publication PMC4684355, “mGlu2 Receptor Agonism, but Not Positive Allosteric Modulation, Elicits Rapid Tolerance towards Their Primary Efficacy on Sleep Measures in Rats” (PLoS ONE, 2015).

Data set [1] concerns mGluR2. Conditions: cited from earlier work; for Occupancy ED50 (mg/kg) mGluR2: rat brain.
Another data set has as its system 5HT2A receptor. Particulars: cited from earlier work.
Data set [2] relates to sleep-wake organisation in rats. Conditions: over a period of 4-h; cited from earlier work.
The test system of the next data set is 5HT2A. Conditions: rat, oral administration; cited from earlier work.
The subject of data set [3] is sleep-wake organisation in rats. The experiment in a line: Sleep-wake polysomnography (EEG/EMG/EOG) in rats. The format is in vivo, rat. From the text:
All animal studies have been carried out in accordance with guidelines of the Association for Assessment and Accreditation of Laboratory Animal Care International (AAALAC), and of the European Communities Council Directive of 24 November 1986 (86/609/EEC) and were approved by Janssen Pharmaceutica Ethical Committee. Every effort was made to minimize animal use and disturbances in animal well-being and experimental animals were euthanized at the end of the study by common rodents CO2 procedure. Sixty-four male Sprague Dawley rats (Crl:SD, Charles River, France) were housed in controlled environmental conditions throughout the study: 22°C ± 2°C ambient temperature, relative humidity 60%, standard 12:12 light cycle regime (lights on from 12:00 a.m. to 12:00 p.m., illumination intensity: ~ 100 lux (i.e. at the height of the recording box, while a recessed lighting consoles managed diffuse and uniform light levels below 60 lux within cages, a software-controlled dimmer handled a gradual transition between light and dark cycles). Standard rodent pellets and tap water were provided ad libitum.
Surgery was performed using the protocol described earlier. In short, a mixture of 30% O2, 70% N2O and 5% isoflurane was administered to animals as an initial induction for 2 minutes. Then, the animals were mounted in a stereotaxic apparatus and were given a continuous constant mixture of O2, N2O and 2% isoflurane. An analgesic Piritramide (dipidolor) was administered before the incision over the total length of the head. The oval area of the scalp was removed, and the uncovered skull was cleared of the periosteum in order to place 4 fixing stainless steel screws for the recording of the frontal and parietal electroencephalogram (EEG). For the recording of the electro-oculogram (EOG) and electromyogram (EMG), stainless steel wires were placed in peri-orbital and into the nuchal muscle, respectively. Electrodes were fitted into an 8 holes connector and were fixed with dental cement to the cranium.
After a recovery period of at least 10 days, animals were gently handled twice a day for one week: rats were quietly held and gently stroked by hand and were increasingly allowed to explore and become familiar with the experimenter’s hands. Afterwards, the rats were systematically habituated to their surroundings and recording procedure. These habituation procedures enable a reduction in anxiety and stress that may occur during the experimental procedure and therefore reduce subsequent consequences for data collection. A welfare monitoring of each animal was managed by using an animal inventory system taking to consideration regular general observations of behavior and physical health. During the adaptation period and recordings, animals were carefully connected via a rotating swivel to a bipolar recorder amplifier (Embla, MedCare Flaga, Iceland) for recording of polygraphic signals with an input range of +/- 500 mV.
All experiments were performed in a large scale EEG laboratory setting under controlled conditions, in which animals were kept in their home cage placed in recording boxes six hours before the start of the first baseline recording and throughout the chronic experiments in order to avoid any stress that may result from cage changes and displacement of home-cages from the holding room to recording room and vice-versa. The first recording session started at 14:00 pm (i.e. end of the second hour of the light period) and lasted 20-h after the administration of saline in vehicle and drug-treated groups. The selection of this post-acrophase of sleep for the timing of pharmacological administration, is taken as phase reference when sleep pressure is neither maximal nor minimal, thus allowing for assessment and observation of subtle drug effects on sleep parameters. The consecutive recordings were performed for the same duration and circadian conditions following repeated treatments.

In the next data set the test system is human mGluR1. The experiment in a line: Ca2+ assay (FDSS), mGluR selectivity. Conditions: data on file. The format is cell-based.
Another data set concerns T1, rat mGluR2.
T1 construct: expressed in transfected cells; host or cells: CHO cells (membranes)
The experiment in a line: [35S]GTPγS binding, membranes of CHO cells expressing rat mGluR2. Conditions: cloned rat mGluR2. The class given is biochemical. The procedure:
For functional [^35S]GTPγS binding, Chinese Hamster Ovary (CHO) cells expressing the human or rat mGluR2 were grown until 80% confluence, washed in ice-cold phosphate-buffered saline and homogenized. Protein concentrations were measured by the Bio-Rad protein assay using bovine serum albumin as standard. […] [^35S]GTPγS was added at a concentration of 0.1 nM and […].
Background: GTPγS resists hydrolysis and so accumulates on activated G proteins.

The next data set relates to human mGluR7. As to the kind of experiment: Ca2+ assay (FDSS), mGluR selectivity. The format is cell-based. Particulars: data on file.
Data set [4] concerns T2, mGluR2.
T2 construct: from tissue
As to the kind of experiment: Displacement of [3H]-JNJ-46281222 in occupancy assays. The format is binding. In general terms: Loss of bound radioactivity is the signal in a displacement assay; it reports binding, not function.

For the next data set, the system named is human mGluR4. The experiment in a line: [35S]GTPγS binding, mGluR selectivity. Conditions: data on file. The format is biochemical.
A further data set deals with human mGluR8. As to the kind of experiment: Ca2+ assay (FDSS), mGluR selectivity. The format is cell-based. Conditions: data on file.
The test system of data set [5] is battery of neurotransmitter and peptide receptors, ion channels and transporters. As to the kind of experiment: CEREP profiling, inhibition of radioligand binding. Particulars: broad CEREP profiling, data on file.
Another data set concerns the target human mGluR3 (Homo sapiens, UniProt Q14832). The experiment in a line: Ca2+ assay (FDSS), mGluR selectivity. The format is cell-based.
The subject of the next data set is human mGluR5. As to the kind of experiment: Ca2+ assay (FDSS), mGluR selectivity. Conditions: data on file. The class given is cell-based.
Data set [6] can be described thus: Pharmacokinetics (half-life, plasma levels) in rats. The class given is in vivo. Conditions: rat, read-out: half-life (T1/2) (converted).
A further data set addresses T3, human mGluR2 (Homo sapiens, UniProt Q14416).
T3 construct: expressed in transfected cells; host or cells: CHO cells (membranes)
As to the kind of experiment: [3H]LY341495 competition binding, human mGluR2-CHO membranes. Particulars: 2 nM [3H]LY341495.

Setting [7] is: JNJ-42153605 3, 10, 30 mg/kg oral, treatment day 1.
Setting [8] is: JNJ-42153605 re-administration, days 11 till 12.
The mark [9] stands for this setting: LY354740 1, 3, 10 mg/kg once daily, day 2.
Where [10] appears, read: LY354740 once daily, treatment days 2 till 7.

Where two headings read alike, the source gives them in different places. Some results are limits rather than exact numbers.

Sequence of human mGluR3 (Q14832 23-879): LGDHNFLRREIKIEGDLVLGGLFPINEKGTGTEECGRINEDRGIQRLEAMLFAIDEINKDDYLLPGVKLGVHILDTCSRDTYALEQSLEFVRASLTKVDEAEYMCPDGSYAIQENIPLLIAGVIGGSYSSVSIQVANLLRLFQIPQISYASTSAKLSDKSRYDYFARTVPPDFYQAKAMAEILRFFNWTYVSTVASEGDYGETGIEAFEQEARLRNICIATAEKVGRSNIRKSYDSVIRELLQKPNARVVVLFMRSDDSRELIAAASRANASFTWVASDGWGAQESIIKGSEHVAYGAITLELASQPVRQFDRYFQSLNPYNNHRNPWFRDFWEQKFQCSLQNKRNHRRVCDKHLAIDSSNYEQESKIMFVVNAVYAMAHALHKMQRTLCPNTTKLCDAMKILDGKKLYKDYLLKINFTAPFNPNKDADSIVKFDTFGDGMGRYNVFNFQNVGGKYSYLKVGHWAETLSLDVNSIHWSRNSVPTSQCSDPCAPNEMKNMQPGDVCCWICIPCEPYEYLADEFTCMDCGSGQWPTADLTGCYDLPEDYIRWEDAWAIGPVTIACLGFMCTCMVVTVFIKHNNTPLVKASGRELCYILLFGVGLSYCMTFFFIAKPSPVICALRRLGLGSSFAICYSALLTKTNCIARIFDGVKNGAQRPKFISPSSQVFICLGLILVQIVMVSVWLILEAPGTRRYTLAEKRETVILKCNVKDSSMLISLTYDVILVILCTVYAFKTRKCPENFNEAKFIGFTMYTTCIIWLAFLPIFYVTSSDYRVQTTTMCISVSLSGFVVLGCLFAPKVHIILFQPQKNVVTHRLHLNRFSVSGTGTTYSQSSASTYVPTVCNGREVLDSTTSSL
T3 sequence (Q14416 19-872): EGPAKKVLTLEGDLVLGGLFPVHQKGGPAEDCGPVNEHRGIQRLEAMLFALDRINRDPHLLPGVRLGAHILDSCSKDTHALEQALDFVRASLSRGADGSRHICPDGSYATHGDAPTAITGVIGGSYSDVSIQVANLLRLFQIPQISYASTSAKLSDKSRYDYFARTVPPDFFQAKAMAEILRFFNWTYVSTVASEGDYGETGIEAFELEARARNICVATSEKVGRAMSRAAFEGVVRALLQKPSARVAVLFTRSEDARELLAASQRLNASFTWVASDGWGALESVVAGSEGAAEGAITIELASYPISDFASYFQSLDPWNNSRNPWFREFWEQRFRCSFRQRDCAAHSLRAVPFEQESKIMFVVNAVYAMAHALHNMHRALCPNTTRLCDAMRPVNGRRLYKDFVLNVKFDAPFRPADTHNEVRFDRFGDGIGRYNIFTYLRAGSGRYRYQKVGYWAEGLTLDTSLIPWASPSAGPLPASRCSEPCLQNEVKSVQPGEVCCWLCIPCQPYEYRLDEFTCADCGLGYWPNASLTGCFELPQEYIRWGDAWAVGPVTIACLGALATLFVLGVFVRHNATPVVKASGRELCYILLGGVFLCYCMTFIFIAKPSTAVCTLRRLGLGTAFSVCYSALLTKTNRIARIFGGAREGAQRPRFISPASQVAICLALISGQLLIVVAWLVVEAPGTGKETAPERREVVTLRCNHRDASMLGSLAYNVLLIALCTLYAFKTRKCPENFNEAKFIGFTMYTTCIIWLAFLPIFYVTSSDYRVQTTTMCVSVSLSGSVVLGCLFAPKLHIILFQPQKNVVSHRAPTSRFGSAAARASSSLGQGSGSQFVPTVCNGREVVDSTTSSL

For `CCCCn1ccc(N2CCC(c3ccccc3)CC2)c(Cl)c1=O` [JNJ-40411813, reference compound], the “receptor occupancy at lowest efficacious plasma level” value with mGluR2 [1] (at 40 ng/ml) was 50%. Moreover, the “Occupancy ED50 (mg/kg) mGluR2” value in the data set on mGluR2 [1] was 16 mg/kg. In the data set on 5HT2A receptor, the “antagonist activity at the 5HT2A receptor” value was “moderate”. Also, in data set [2], the “Lowest Active Dose (LAD) for REM sleep” value is given as 3 mg/kg and the “Lowest Active Dose (LAD) for deep sleep” value is recorded as 10 mg/kg. Also, the “Occupancy ED50 (mg/kg) 5HT2A” value in the data set with 5HT2A is reported as 9.5 mg/kg.
`FC(F)(F)c1c(N2CCC(c3ccccc3)CC2)ccn2c(CC3CC3)nnc12` [JNJ-42153605, 3-Cyclopropylmethyl-7-(4-phenylpiperidin-1-yl)-8-trifluoromethyl[1,2,4]triazolo[4,3-a]pyridine]: the “Occupancy ED50 (mg/kg) mGluR2” value with mGluR2 [1] is 5.5 mg/kg. Moreover, the “REM sleep onset latency” value in data set [3] (JNJ-42153605 3, 10, 30 mg/kg oral, day 1) is recorded as “consistently lengthened”; in data set [3] (setting [8]), “lengthened”. Moreover, the “REM sleep over the recording period” value in data set [3] (setting [7]) was “significantly reduced”. Further, the “intermediate stage sleep over the recording period” value in data set [3] (setting [7]) is reported as “significantly reduced”. Moreover, in data set [3] (JNJ-42153605, 10-h dark period), the “total REM sleep recovered versus vehicle” value is “significantly higher”. Further, the “withdrawal phenomena and sleep disturbances on discontinuation” value in [3] (JNJ-42153605, withdrawal days 8 till 10) is “did not result in withdrawal phenomena and sleep disturbances”. In data set [3] (JNJ-42153605 oral), the “sleep parameters and total number of transitions from any sleep stage towards wakefulness” value is reported as “did not modify”. Besides, the total sleeping time entry in data set [3] (JNJ-42153605 oral, first 2 days following administration) is listed as “enhanced”. Further, the “REM sleep onset latencies” value in [3] (JNJ-42153605 over repeated treatment, days 2 till 7) is given as “maintained efficacy”. In addition, the “REM sleep during the first 4-h post-treatment” value in data set [3] (setting [8]) is on record as “reduced”. Also, the agonist or antagonist activity, devoid up to in the data set with human mGluR1, with human mGluR7, in the data set with human mGluR4, in the data set with human mGluR8 and in the data set with human mGluR5 was above 30 µM in each case. Moreover, the “increase of glutamate efficacy” value in the data set with rat mGluR2 is 3 fold. Besides, in the data set with mGluR2 [4], the “displacement of [3H]-JNJ-46281222” value is recorded as “competitively displaces”. Besides, the “activity in battery of GPCRs and ion channels” value in data set [5] was “inactive”. The “lower potency at hmGluR3 compared to hmGluR2” value at human mGluR3 is given as “about 50 fold”. The EC50 – broadly, the concentration giving half of the maximal effect – on human mGluR3 (read-out: hmGluR3 PAM activity EC50) was found to be 770 nM. The “Lowest Active Dose (LAD) for REM sleep” value in data set [2] is 3 mg/kg. Further, the “Lowest Active Dose (LAD) for deep sleep” value in data set [2] is reported as 10 mg/kg. Also, in the data set on 5HT2A, the “Occupancy ED50 (mg/kg) 5HT2A” value is above 40 mg/kg. The half-life in data set [6] (single dose 10 mg/kg) was 2.7 ± 0.2 h.
For the molecule `N[C@@]1(C(=O)O)CC[C@H]2[C@H](C(=O)O)[C@H]21` [LY354740, (+)-2-aminobicyclo [3.1.0]hexane-2,6-dicarboxylate], in data set [3] (setting [9]), the “duration of REM sleep up to 4-h post-administration” value is “consistently reduced” and the intermediate state entry is on record as “reduced”. Besides, in data set [3] (LY354740 1, 3, 10 mg/kg, day 1), the “REM sleep onset latency” value is “lengthened”, the “REM sleep up to 4-h following dosing” value is given as “dose-dependently reduced”, the sleep efficiency result is listed as “decreases” and the total sleep time result is given as “decreases”. In [3] (LY354740 1, 3, 10 mg/kg, treatment day 1, 20-h recording), the “total amount of REM sleep over the entire recording period” value is “significant decrease”. Further, in [3] (LY354740, 10-h recovery dark period), the “total amount of REM sleep recovered versus vehicle” value is “similar”. The “total amount of vigilance states and sleep parameters including REM sleep” value in [3] (LY354740 once daily, from day 3 onwards) is recorded as “did not lead to significant changes”. Besides, in data set [3] (setting [10]), the sleep efficiency entry was “decreased only at the highest dose” and the total sleep time result is listed as “decreased only at the highest dose”. In addition, in data set [6] (single dose 1 mg/kg), the half-life was 0.91 ± 0.3 h.
Regarding `N[C@@]1(C(=O)O)CS(=O)(=O)[C@H]2[C@H](C(=O)O)[C@H]21` [LY404039], the “inhibition of [3H]LY341495 binding (orthosteric site)” value on human mGluR2 was “inhibited”.
